Assay results from paper PMC10856758, “New Dual Inhibitors of Tyrosyl-DNA Phosphodiesterase 1 and 2 Based on Deoxycholic Acid: Design, Synthesis, Cytotoxicity, and Molecular Modeling” (Molecules, 2024).
Where two headings read alike, the source gives them in different places.

What was measured:
TDP1 [1] = molecular target: T1, TDP1 (Homo sapiens, UniProt Q9NUW8); assay: TDP1 activity, real-time fluorescence oligonucleotide biosensor (FAM/BHQ1); assay type: biochemical; conditions: 1.5 nM TDP1, 50 nM biosensor
Description: To detect TDP1 activity in real time, we used an oligonucleotide biosensor based on the ability of TDP1 to remove fluorophore quenchers from the 3’ end of DNA [29]. The hexadecamer oligonucleotide carried 5(6)-carboxyfluorescein (FAM) at the 5’ end as a fluorophore and Black Hole Quencher-1 (BHQ1) at the 3’ end as a fluorophore quencher. TDP1 inhibitors prevent the removal of fluorophore quenchers, resulting in a decrease in fluorescence intensity.
TDP1 activity was detected as described in [31]. We measured the fluorescence intensity after quencher cleavage via a fluorophore quencher–coupled DNA oligonucleotide […]. The reaction mixtures contained TDP1 buffer (50 mM Tris, HCl pH 8.0, 50 mM NaCl, and 7 mM β-mercaptoethanol), 50 nM biosensor, and different concentrations of inhibitors. The reaction was triggered by adding TDP1 to a final concentration of 1.5 nM. The fluorophore quencher–coupled DNA oligonucleotide was synthesized in the Laboratory of Nucleic Acid Chemistry at the Institute of Chemical Biology and Fundamental Medicine (Novosibirsk, Russia).
The reaction mixtures were incubated at room temperature in a 96-well plate, and fluorescence was measured using the POLARstar OPTIMA fluorimeter (BMG LABTECH, GmbH, Ortenberg, Germany) every 55 s during the linear phase (here, data from minute 0 to minute 8). […] Data calculation was carried out using the software MARS Data Analysis 2.0 (BMG LABTECH, Ortenberg, Germany).

TDP2 [2] = molecular target: T2, TDP2 (Homo sapiens, UniProt O95551); assay: Gel-based TDP2 activity assay (removal of 5'-tyrosine, PAGE); assay type: biochemical; conditions: for remaining activity at 500 µM: read-out: TDP2, % (residual activity of TDP2); for IC50: 200 nM TDP2, 100 nM substrate, 15 min 37 °C
T2 sequence (O95551 1-362): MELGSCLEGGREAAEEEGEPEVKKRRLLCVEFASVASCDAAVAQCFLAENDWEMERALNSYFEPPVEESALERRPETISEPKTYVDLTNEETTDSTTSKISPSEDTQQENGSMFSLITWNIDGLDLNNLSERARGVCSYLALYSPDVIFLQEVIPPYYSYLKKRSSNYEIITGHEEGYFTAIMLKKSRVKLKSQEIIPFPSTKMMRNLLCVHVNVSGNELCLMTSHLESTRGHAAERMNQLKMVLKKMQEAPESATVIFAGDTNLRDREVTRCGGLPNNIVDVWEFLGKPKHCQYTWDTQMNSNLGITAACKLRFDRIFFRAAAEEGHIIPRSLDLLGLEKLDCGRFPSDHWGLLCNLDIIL
Experimental: We investigated the activity against the TDP2 enzyme of compounds 3d–f and 4a–e at 500 μM (Table 1). The basis for testing TDP 2 was its ability to remove a tyrosine residue from the 5’ end of an oligonucleotide substrate. The TDP2 reaction products were separated in a polyacrylamide gel (PAGE) with formamide denaturation.
TDP2 activity was detected as described in [42]. We separated the products of the reaction of cleavage of the tyrosine residue from the 5′-end of the 3e FAM-labeled oligonucleotide in a polyacrylamide gel under denaturing conditions. […] The reaction mixtures contained TDP1 buffer ([…] Tris-HCl pH 8.0, 40 mM NaCl, 1 mM DTT, 0.05 mg/mL BSA (Sigma-Aldrich, St. Luis, MO, USA)), 100 nM oligonucleotide substrate, and inhibitors. The reaction was triggered by adding TDP2 to a final concentration of 200 nM.
The reaction mixtures were incubated for 15 min at 37 °C. The reaction products were analyzed using Typhoon FLA 9500 phosphorimager (GE Healthcare, Boston, MA, USA). Each experiment was carried out in three independent replicates. The data were analyzed with QuantityOne 4.6.7 software.

in vitro = conditions: human, HeLa CC50
Experimental: (§1) Topotecan (TOP1 inhibitor) and etoposide (TOP2 inhibitor) were used to study the effect combined with DCA derivatives on the metabolic activity of cells. […] Topotecan (0.5 µM) and etoposide (5 µM) were used at a concentration with low toxicity (>70% of living cells), selected based on preliminary experiments.
(§2) The cells were seeded in 96-well plates in quadruplicates at 3 × 10^3 cells/well. The cells were grown in Dulbecco’s Modified Eagle—Medium (DMEM) (AppliChem, Darmstadt, Germany) with Antibiotic-Antimycotic (100 IU/mL penicillin, 0.1 μg/mL streptomycin, 0.25 µg/mL amphotericin) (1×) (Gibco, Grand Island, NE, USA) and 10% of fetal bovine serum (Gibco, Grand Island, NE, USA) in a 5% CO2 atmosphere at 37 °C. After the formation of a 50% monolayer, tested compounds were added to the medium, and the cell culture was monitored for 72 h at 37 °C. DCA derivatives were dissolved in 100% DMSO and topotecan/etoposide in water. Control cells were grown in the presence of the same volume of DMSO, those cells with the investigated compound. […] (MTT) solution (10 μL, 5 mg/mL) were added to each well and the cells were incubated for an additional 2 h. Then, the medium was removed from the wells, and 100 μL of iso-propanol was added to dissolve blue formazan crystals formed within live cells; the optical density was measured at test and reference wavelengths (570 nm and 620 nm, respectively) using CLARIOstar fluorimeter (BMG LABTECH, GmbH, Ortenberg, Germany). The experiments were repeated at least three times.

TDP1 [3] = molecular target: T1, TDP1; parameters: method as in PMID 33221302; conditions: earlier DCA derivatives; cited from earlier work
TDP2 [4] = molecular target: T2, TDP2; parameters: method as in PMID 35011303; conditions: at ~1 mM concentration; cited from earlier work
HeLa cells [5] = assay: MTT assay, combination with topotecan or etoposide; assay type: cell-based, human; conditions: with 0.5 μM topotecan or 5 µM etoposide
Experimental: Next, the ability of the selected compounds to enhance the cytotoxic effect of topotecan and etoposide on the HeLa cell line was studied. CC50 values (50% cytotoxic concentration) were also calculated for the test compounds in the presence of topotecan or etoposide at fixed concentrations. For evaluation, three independent MTT assays were performed as described above with test substances in combination with topotecan at a final concentration of 0.5 μM and etoposide at a final concentration of 5 μM per well.
Figure 2 The combined action of compounds 3d–e and 4d–e with 0.5 μM topotecan (Tpc, (A)) and 5 µM etoposide (Eto, (B)) on the survival of HeLa cells. The error bars show standard deviations.

HeLa cells [6] = conditions: human, 72 h
Experimental: as §1, §2

HeLa cells [7] = assay: MTT cytotoxicity/antiproliferative assay; conditions: low-toxicity concentration, preliminary experiments
Experimental: as §1, §2

[8] = MTT cytotoxicity/antiproliferative assay; conditions: human, HeLa cells, HeLa CC50, 72 h of treatment, MTT assay
Experimental: as §1, §2

T1 sequence (Q9NUW8 whole entry): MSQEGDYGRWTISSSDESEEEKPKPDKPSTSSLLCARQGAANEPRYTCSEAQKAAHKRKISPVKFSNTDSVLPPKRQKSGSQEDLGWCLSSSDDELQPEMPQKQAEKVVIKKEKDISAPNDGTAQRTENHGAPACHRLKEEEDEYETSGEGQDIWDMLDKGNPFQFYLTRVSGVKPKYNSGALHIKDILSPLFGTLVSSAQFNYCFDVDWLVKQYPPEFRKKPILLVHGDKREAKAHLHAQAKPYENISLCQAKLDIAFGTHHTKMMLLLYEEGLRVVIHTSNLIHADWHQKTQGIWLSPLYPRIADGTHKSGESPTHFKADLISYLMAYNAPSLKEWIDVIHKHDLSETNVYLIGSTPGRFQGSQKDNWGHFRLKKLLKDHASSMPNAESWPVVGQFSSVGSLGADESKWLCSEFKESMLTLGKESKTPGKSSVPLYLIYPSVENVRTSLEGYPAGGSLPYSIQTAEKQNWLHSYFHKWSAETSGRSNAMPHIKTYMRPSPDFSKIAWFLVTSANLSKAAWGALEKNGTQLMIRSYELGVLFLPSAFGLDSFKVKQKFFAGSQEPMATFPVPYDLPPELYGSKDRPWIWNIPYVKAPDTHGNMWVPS

Structure (SMILES)	melting point	IC50 (TDP1 [1]) [µM]	remaining activity at 500 µM (TDP2 [2]; at 500 µM compound) [%]	CC50 at 72 h (in vitro) [µM]	also measured
CC(CCC(=O)O)C1CCC2C3CCC4CC(O)(CSc5ccncc5)CCC4(C)C3CC(O)C12C (stereo not drawn) [3a, 3β,12α-Dihydroxy-3α-((pyrydin-4-ylthio)methyl)-5β-cholan-24-oic Acid]	119.6 °C (dec.)	22 ± 2	92 ± 3		
CC(CCC(=O)O)C1CCC2C3CCC4CC(O)(CSc5nccn5C)CCC4(C)C3CC(O)C12C (stereo not drawn) [3b, 3β,12α-Dihydroxy-3α-((1-methyl-1H-imidazol-2-ylthio)methyl)-5β-cholan-24-oic Acid]	119.9 °C (dec.)	30 ± 7	≥ 100		
CC(CCC(=O)O)C1CCC2C3CCC4CC(O)(CSc5nc[nH]n5)CCC4(C)C3CC(O)C12C (stereo not drawn) [3c, 3β,12α-Dihydroxy-3α-((1H-1,2,4-triazol-5-ylthio)methyl)-5β-cholan-24-oic Acid]	95.1 to 98.4 °C	32 ± 4	≥ 100		
Cc1ccc2[nH]c(SCC3(O)CCC4(C)C(CCC5C4CC(O)C4(C)C(C(C)CCC(=O)O)CCC54)C3)nc2c1 (stereo not shown) [3d]	188.9 °C (dec.)	25 ± 4	~25	63 ± 6	IC50 (TDP2 [2]): 250 ± 30 µM; TDP2, % (residual activity of TDP2) (TDP2 [2]; at 500 µM compound, 500 µM): 24 ± 5%
CC(CCC(=O)O)C1CCC2C3CCC4CC(O)(CSc5nc6ccccc6s5)CCC4(C)C3CC(O)C12C (stereo not shown) [3e]	106.2 °C (dec.)	14 ± 2	~2	75 ± 13	IC50 (TDP2 [2]): 76 ± 13 µM
COC1CCC2(C)C(CCC3C2CC(OC)C2(C)C(C(C)CCC(=O)Nc4ccc(Br)cc4)CCC32)C1 (stereo not drawn) [3α,12α-bis-methoxy deoxycholic para-bromoanilide]					IC50 (TDP1 [3]): 0.27 µM; TDP1 IC50 (TDP1 [3]): submicromolar range
CC(CCC(=O)NCCc1c[nH]c2ccccc12)C1CCC2C3CCC4CC(OCc5ccccc5)CCC4(C)C3CC(O)C12C (stereo not drawn) [3α-benzyloxy deoxycholic tryptamide]					TDP2 residual activity (TDP2 [4]): less than 50%; IC50 (TDP1 [3]): 0.24 µM; TDP1 IC50 (TDP1 [3]): submicromolar range
COC(=O)CCC(C)C1CCC2C3CCC4CC(O)(CSc5nc6cc(C)ccc6[nH]5)CCC4(C)C3CC(O)C12C (stereo not shown) [4d]	112.1 °C (dec.)	0.94 ± 0.04	~14	50 ± 13	IC50 (TDP2 [2]): 218 ± 7 µM
COC(=O)CCC(C)C1CCC2C3CCC4CC(O)(CSc5nc6ccccc6s5)CCC4(C)C3CC(O)C12C (stereo not shown) [4e]	74.5 °C (dec.)	0.63 ± 0.03	~49	> 75	combined cytotoxic effect / cell survival under drug combinations (HeLa cells [5]): most noticeable combined cytotoxic effect with both topotecan and etoposide; CC50 (HeLa cells [6]): > 100 µM
COC(=O)CCC(C)C1CCC2C3CCC4CC(O)(CSc5nc6ccccc6o5)CCC4(C)C3CC(O)C12C (stereo not shown) [4f]	75 °C (dec.)	1.8 ± 0.5	≥ 100		
COc1cc([C@@H]2c3cc4c(cc3[C@@H](O[C@@H]3O[C@@H]5CO[C@@H](C)O[C@H]5[C@H](O)[C@H]3O)[C@H]3COC(=O)[C@H]23)OCO4)cc(OC)c1O [Etoposide]					living cells (HeLa cells [7]; etoposide alone at 5 µM): > 70%; CC50 at 72 h [8]: 6.2 ± 0.6 µM
CC[C@@]1(O)C(=O)OCc2c1cc1n(c2=O)Cc2cc3c(CN(C)C)c(O)ccc3nc2-1 [Topotecan]					living cells (HeLa cells [7]; topotecan alone at 0.5 µM): > 70%; CC50 at 72 h [8]: 0.9 ± 0.1 µM
